Data as given in the supplement of paper PMC10307832.

Each cell line was assayed with Cc1ccc2nc(NCCN)c3ncc(C)n3c2c1 + CC(=O)Nc1cccc(-n2c(=O)n(C3CC3)c(=O)c3c(Nc4ccc(I)cc4F)n(C)c(=O)c(C)c32)c1 [Trametinib] (partner 0.02 µM) (assay: relative viability (nuclei count vs DMSO), 5 days (fraction); higher = more cells survive). Conditions: first compound 0.04 µM.
Outline: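 A single step with final 0.05% Triton X-100, 1% formaldehyde and 1 ug/ml Hoechst fixed the cells and stained nuclei 5 days after treatment. Lung cancer cell lines in 1536-well plates had been treated by pin tool the day after seeding with one drug alone or a fixed anchor-drug dose plus five library-drug doses (not always all listed) in √10 steps, and nuclei were counted on 4× images. Relative viability is the ratio of nuclei in treated wells to nuclei in vehicle wells, taken as the median of duplicate plates.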

Cell Line	relative viability
HCC-44	1.11
LU99A	0.501
BEN	0.97
HARA	0.637
HCC-78	0.703
NCI-H322M	0.522
LCLC-97TM1	0.194
NCI-H2009	0.309
A-427	0.725
NCI-H441	0.487
NCI-H661	0.579
NCI-H1734	0.719
NCI-H460	0.165
NCI-H2347	0.269
SK-LU-1	0.427
201T	0.72

Cell Line	relative viability
NCI-H1915	0.304
HCC-827	0.557
LXF-289	0.669
NCI-H23	0.444
NCI-H647	0.542
NCI-H1651	0.842
EPLC-272H	0.296
NCI-H1792	0.645
NCI-H1355	0.44
NCI-H3122	0.21
NCI-H1437	0.578
NCI-H1755	0.757
NCI-H2023	0.595
HCC-15	0.425
PC-14	0.779
EKVX	0.383

Same assay, conditions: first compound 0.1265 µM

Cell Line	relative viability
HOP-62	0.374
HCC-44	0.971
LU99A	0.604
BEN	0.929
HARA	0.648
HCC-78	0.672
NCI-H322M	0.538
LCLC-97TM1	0.212
NCI-H2009	0.251
A-427	0.731
NCI-H441	0.47
NCI-H661	0.57
NCI-H1734	0.632
NCI-H460	0.146
NCI-H2347	0.289
SK-LU-1	0.509
201T	0.696

Cell Line	relative viability
NCI-H1915	0.297
HCC-827	0.51
LXF-289	0.629
NCI-H23	0.391
NCI-H647	0.378
NCI-H1651	0.666
EPLC-272H	0.334
NCI-H1792	0.397
NCI-H1355	0.448
NCI-H3122	0.26
NCI-H1437	0.463
NCI-H1755	0.809
NCI-H2023	0.561
HCC-15	0.373
PC-14	0.706
EKVX	0.365

Same assay, conditions: first compound 0.4 µM

Cell Line	relative viability
HOP-62	0.376
HCC-44	1.03
LU99A	0.541
BEN	1.07
HARA	0.41
HCC-78	0.699
NCI-H322M	0.495
LCLC-97TM1	0.196
NCI-H2009	0.286
A-427	0.705
NCI-H441	0.342
NCI-H661	0.567
NCI-H1734	0.755
NCI-H460	0.171
NCI-H2347	0.264
SK-LU-1	0.478

Cell Line	relative viability
201T	0.713
NCI-H1915	0.28
HCC-827	0.539
LXF-289	0.696
NCI-H23	0.384
NCI-H647	0.437
NCI-H1651	0.844
EPLC-272H	0.282
NCI-H1355	0.392
NCI-H3122	0.248
NCI-H1437	0.445
NCI-H1755	0.769
NCI-H2023	0.661
HCC-15	0.364
PC-14	0.742
EKVX	0.269

Same assay, conditions: first compound 1.265 µM

Cell Line	relative viability
HOP-62	0.387
HCC-44	1.1
LU99A	0.618
BEN	0.958
HARA	0.723
HCC-78	0.527
NCI-H322M	0.502
LCLC-97TM1	0.189
NCI-H2009	0.273
A-427	0.695
NCI-H441	0.346
NCI-H661	0.574
NCI-H1734	0.638
NCI-H460	0.197
NCI-H2347	0.29
SK-LU-1	0.546
201T	0.738

Cell Line	relative viability
NCI-H1915	0.296
HCC-827	0.626
LXF-289	0.645
NCI-H23	0.426
NCI-H647	0.419
NCI-H1651	0.865
EPLC-272H	0.253
NCI-H1792	0.405
NCI-H1355	0.39
NCI-H3122	0.259
NCI-H1437	0.415
NCI-H1755	0.8
NCI-H2023	0.574
HCC-15	0.356
PC-14	0.647
EKVX	0.261

Same assay, conditions: first compound 4 µM

Cell Line	relative viability
HOP-62	0.328
HCC-44	1.01
LU99A	0.577
BEN	1.05
HARA	0.761
HCC-78	0.536
NCI-H322M	0.535
LCLC-97TM1	0.186
NCI-H2009	0.28
A-427	0.775
NCI-H441	0.512
NCI-H661	0.544
NCI-H1734	0.707
NCI-H460	0.0969
NCI-H2347	0.3
SK-LU-1	0.462
201T	0.684

Cell Line	relative viability
NCI-H1915	0.294
HCC-827	0.555
LXF-289	0.663
NCI-H23	0.308
NCI-H647	0.341
NCI-H1651	0.829
EPLC-272H	0.245
NCI-H1792	0.488
NCI-H1355	0.387
NCI-H3122	0.238
NCI-H1437	0.381
NCI-H1755	0.776
NCI-H2023	0.32
HCC-15	0.381
PC-14	0.327
EKVX	0.291
